The subject of this data set is CCRIS mutagenicity, Ames/micronucleus/aberration tests. As to the kind of experiment: CCRIS mutagenicity studies.
The mark [1] stands for this setting: Test System: AMES SALMONELLA TYPHIMURIUM, Strain/Indicator: TA97, Metabolic Activation: NONE, Method: PREINCUBATION
[2] abbreviates: Test System: AMES SALMONELLA TYPHIMURIUM, Strain/Indicator: TA98, Metabolic Activation: NONE, Method: PREINCUBATION
The mark [3] stands for this setting: Test System: AMES SALMONELLA TYPHIMURIUM, Strain/Indicator: TA100, Metabolic Activation: NONE, Method: PREINCUBATION
Where [4] appears, read: Test System: AMES SALMONELLA TYPHIMURIUM, Strain/Indicator: TA102, Metabolic Activation: NONE, Method: PREINCUBATION

Activity calls are given as the source filed them. No rule for the calls is given here.

With `CCCCCCC(C)OC(=O)C[S][Sn]([CH2]CCC)([S]CC(=O)OC(C)CCCCCC)[S]CC(=O)OC(C)CCCCCC` (stereo not drawn), the mutagenic call (Test System: AMES SALMONELLA TYPHIMURIUM, Strain/Indicator: TA97, Metabolic Activation: HAMSTER, LIVER, S-9, AROCLOR 1254 (10 OR 30%), Method: PREINCUBATION) is “inactive; negative”; the mutagenic call under setting [1] is “inactive; negative”; the mutagenic call (Test System: AMES SALMONELLA TYPHIMURIUM, Strain/Indicator: TA97, Metabolic Activation: RAT, LIVER, S-9, AROCLOR 1254 (10 OR 30%), Method: PREINCUBATION) was “inactive; negative”; the mutagenic call (Test System: AMES SALMONELLA TYPHIMURIUM, Strain/Indicator: TA98, Metabolic Activation: HAMSTER, LIVER, S-9, AROCLOR 1254 (10 OR 30%), Method: PREINCUBATION) was “inactive; negative”; the mutagenic call under setting [2] is “inactive; negative”; the mutagenic call (Test System: AMES SALMONELLA TYPHIMURIUM, Strain/Indicator: TA98, Metabolic Activation: RAT, LIVER, S-9, AROCLOR 1254 (10 OR 30%), Method: PREINCUBATION) was “inactive; negative”. In addition, the mutagenic call by setting is: (Test System: AMES SALMONELLA TYPHIMURIUM, Strain/Indicator: TA100, Metabolic Activation: HAMSTER, LIVER, S-9, AROCLOR 1254 (10 OR 30%), Method: PREINCUBATION) “inactive; negative”; under setting [3], “inactive; negative”; (Test System: AMES SALMONELLA TYPHIMURIUM, Strain/Indicator: TA100, Metabolic Activation: RAT, LIVER, S-9, AROCLOR 1254 (10 OR 30%), Method: PREINCUBATION) “inactive; negative”; (Test System: AMES SALMONELLA TYPHIMURIUM, Strain/Indicator: TA1535, Metabolic Activation: HAMSTER, LIVER, S-9, AROCLOR 1254 (10 OR 30%), Method: PREINCUBATION) “inactive; negative”; (Test System: AMES SALMONELLA TYPHIMURIUM, Strain/Indicator: TA1535, Metabolic Activation: NONE, Method: PREINCUBATION) “inactive; negative”; (Test System: AMES SALMONELLA TYPHIMURIUM, Strain/Indicator: TA1535, Metabolic Activation: RAT, LIVER, S-9, AROCLOR 1254 (10 OR 30%), Method: PREINCUBATION) “inactive; negative”.
In the case of `NC(Cc1ccccc1)C(=O)O` (stereo not drawn), the mutagenic call (Test System: AMES SALMONELLA TYPHIMURIUM, Strain/Indicator: TA98, Metabolic Activation: RAT LIVER S-9, CHLOROPHENE, Method: STANDARD PLATE (COMPOUND HEATED AT 250 DEGREES CELSIUS FOR 20 MIN)) is “inactive; negative”.
On to `CSSC`, for which the mutagenic call by setting is: under setting [2], “inactive; negative”; (Test System: AMES SALMONELLA TYPHIMURIUM, Strain/Indicator: TA98, Metabolic Activation: RAT, LIVER, S-9, AROCLOR 1254, Method: PREINCUBATION) “inactive; negative”; under setting [3], “inactive; negative”; (Test System: AMES SALMONELLA TYPHIMURIUM, Strain/Indicator: TA100, Metabolic Activation: RAT, LIVER, S-9, AROCLOR 1254, Method: PREINCUBATION) “inactive; negative”; under setting [4], “inactive; negative”; (Test System: AMES SALMONELLA TYPHIMURIUM, Strain/Indicator: TA102, Metabolic Activation: RAT, LIVER, S-9, AROCLOR 1254, Method: PREINCUBATION) “inactive; negative”.
As for `c1ccc2[nH]c(-c3cscn3)nc2c1`, the mutagenic call runs as follows: (End Point: IN VITRO MICRONUCLEUS, Test System: HUMAN LYMPHOBLASTOID WTK1 CELLS, Metabolic Activation: NONE) “active; positive; uva radiation was 250 uw/cm2”; (End Point: IN VITRO MICRONUCLEUS, Test System: V79 CELLS, Metabolic Activation: NONE) “active; positive”; (Test System: AMES SALMONELLA TYPHIMURIUM, Strain/Indicator: TA97, Metabolic Activation: NONE, BACTERIA IRRADIATED IN PRESENCE OF TEST COMPOUND WITH UVA FOR 10 MIN, TRANSFERRED TO MEDIUM, Metabolic Activation: NONE, BACTERIA IRRADIATED IN PRESENCE OF TEST COMPOUND WITH UVA FOR 10 MIN, TRANSFERRED TO MEDIUM, Method: STANDARD PLATE) “active; positive; uva was 250 uw/cm2”; (Test System: AMES SALMONELLA TYPHIMURIUM, Strain/Indicator: TA98, Metabolic Activation: HAMSTER, LIVER, S-9, AROCLOR 1254 (5 OR 30%), Method: PREINCUBATION) “inactive; negative”; (Test System: AMES SALMONELLA TYPHIMURIUM, Strain/Indicator: TA98, Metabolic Activation: HAMSTER, LIVER, S-9, AROCLOR 1254 (10%), Method: PREINCUBATION) “active; positive”; (Test System: AMES SALMONELLA TYPHIMURIUM, Strain/Indicator: TA98, Metabolic Activation: NONE, BACTERIA IRRADIATED IN PRESENCE OF TEST COMPOUND WITH UVA FOR 10 MIN, TRANSFERRED TO MEDIUM, Metabolic Activation: NONE, BACTERIA IRRADIATED IN PRESENCE OF TEST COMPOUND WITH UVA FOR 10 MIN, TRANSFERRED TO MEDIUM, Method: STANDARD PLATE) “active; positive; response was just barely positive; uva was 250 uw/cm2”. Further, the mutagenic call runs as follows: under setting [2], “inactive; negative”; (Test System: AMES SALMONELLA TYPHIMURIUM, Strain/Indicator: TA98, Metabolic Activation: RAT, LIVER, S-9, AROCLOR 1254 (30%), Method: PREINCUBATION) “inactive; negative”; (Test System: AMES SALMONELLA TYPHIMURIUM, Strain/Indicator: TA100, Metabolic Activation: HAMSTER, LIVER, S-9, AROCLOR 1254 (30%), Method: PREINCUBATION) “inactive; negative”; (Test System: AMES SALMONELLA TYPHIMURIUM, Strain/Indicator: TA100, Metabolic Activation: NONE, BACTERIA IRRADIATED IN PRESENCE OF TEST COMPOUND WITH UVA FOR 10 MIN, TRANSFERRED TO MEDIUM, Metabolic Activation: NONE, BACTERIA IRRADIATED IN PRESENCE OF TEST COMPOUND WITH UVA FOR 10 MIN, TRANSFERRED TO MEDIUM, Method: STANDARD PLATE) “active; positive; uva was 250 uw/cm2”; under setting [3], “inactive; negative”; (Test System: AMES SALMONELLA TYPHIMURIUM, Strain/Indicator: TA100, Metabolic Activation: RAT, LIVER, S-9, AROCLOR 1254 (30%), Method: PREINCUBATION) “inactive; negative”. Moreover, the mutagenic call by setting is: (Test System: AMES SALMONELLA TYPHIMURIUM, Strain/Indicator: TA104, Metabolic Activation: NONE, BACTERIA IRRADIATED IN PRESENCE OF TEST COMPOUND WITH UVA FOR 10 MIN, TRANSFERRED TO MEDIUM, Metabolic Activation: NONE, BACTERIA IRRADIATED IN PRESENCE OF TEST COMPOUND WITH UVA FOR 10 MIN, TRANSFERRED TO MEDIUM, Method: STANDARD PLATE) “active; positive; uva was 250 uw/cm2”; (Test System: E. COLI, Strain/Indicator: WP2S/PKM101, Metabolic Activation: NONE, BACTERIA IRRADIATED IN PRESENCE OF TEST COMPOUND WITH UVA FOR 10 MIN, TRANSFERRED TO MEDIUM, Metabolic Activation: NONE, BACTERIA IRRADIATED IN PRESENCE OF TEST COMPOUND WITH UVA FOR 10 MIN, TRANSFERRED TO MEDIUM, Method: STANDARD PLATE) “active; positive; uva was 250 uw/cm2”.
Regarding `COC(=O)c1ccc(/C=N/n2nnc3c([nH]c4ccccc43)c2=O)cc1`, the mutagenic call is “active; positive” under setting [1]; “active; positive” (Test System: AMES SALMONELLA TYPHIMURIUM, Strain/Indicator: TA97, Metabolic Activation: RAT, LIVER, S-9, AROCLOR 1254 (10%), Method: PREINCUBATION); “active; positive” under setting [2]; “active; positive” (Test System: AMES SALMONELLA TYPHIMURIUM, Strain/Indicator: TA98, Metabolic Activation: RAT, LIVER, S-9, AROCLOR 1254 (10%), Method: PREINCUBATION); “inactive; negative” under setting [3]; “active; positive” (Test System: AMES SALMONELLA TYPHIMURIUM, Strain/Indicator: TA100, Metabolic Activation: RAT, LIVER, S-9, AROCLOR 1254 (10%), Method: PREINCUBATION). For the same molecule, the mutagenic call under setting [4] was “inactive; negative” and the mutagenic call (Test System: AMES SALMONELLA TYPHIMURIUM, Strain/Indicator: TA102, Metabolic Activation: RAT, LIVER, S-9, AROCLOR 1254 (10%), Method: PREINCUBATION) was “active; positive”.
Turning to `O=CN(O)c1ccc(Oc2ccccc2)cc1`, the mutagenic call (Test System: AMES SALMONELLA TYPHIMURIUM, Strain/Indicator: TA100, Metabolic Activation: NONE, Method: STANDARD PLATE) was “inactive; negative” and the mutagenic call (Test System: AMES SALMONELLA TYPHIMURIUM, Strain/Indicator: TA100, Metabolic Activation: RAT, LIVER, S-9, KANECLOR 500, Method: STANDARD PLATE) is “active; positive”.
